Assay results reported in paper PMC3828267 (PLoS ONE, 2013).
Values joined by “and” are separate entries in the source; they are usually repeats but may differ in a detail not shown here. Identical values can stand only once. Like-named read-outs stand apart in the source and are kept apart here. One block for each molecule: values may come before it.

Tests used:
[1] = molecular target: T1, α3β4 AChRs (Homo sapiens, UniProt P30926+P32297); experiment: Acute activation, FLEXStation membrane potential dye, α3β4 cell line; type: cell-based
T1 construct: expressed in transfected cells
Method: (§1) The parental cell line used for transfections was tsA201, derived from the human embryonic kidney cell line (HEK) 293 [33]. […] The cell line permanently expressing α3β4 AChRs has been described, [34]. A stable cell line expressing functional α7 AChRs was prepared by initially transfecting the tsA201 cell line with cDNA for α7 and subsequently transfecting with cDNA for the AChR-selective chaperone, human RIC-3.
(§2) Responses to nicotinic agonists were determined using a FLEXStation microplate fluorometer (Molecular Devices, Sunnyvale, CA) as described. For cell lines expressing α4β2 and α3β4 AChRs, the cells were plated at 10^5 cells/ml (100 µl/well) in black-walled clear-bottom 96 well plates (Costar, Fisher Scientific, Pittsbugh, PA), and incubated for 48 hours prior to assaying responses to various nicotinic agonists. The α7/RIC-3 expressing cells were plated at 5×10^5/ml in black-walled clear-bottom 96 well BioCoat plates (BD Biosciences, Franklin Lakes, NJ) in the continued presence of VPA and PBA, with the addition of 5% human AB serum (Pel-Freez Biologicals, Rogers, AR) to further increase expression of α7 [35]. The cells were then grown for 24 hours prior to the assay.
(§3) To measure responses to various nicotinic agonists, 100 µl of a fluorescent dye which is sensitive to changes in membrane potential (Molecular Devices) was added to the wells. The dye was prepared according to the manufacturer’s instructions, with the addition of atropine (0.5 µM) to block muscarinic responses. The plates were then incubated at 37°C for one hour prior to the assay. Serial dilutions of agonists were then prepared in Hanks Balanced Salt Solution (HBSS) in V-shaped 96-well plates (Fisher Scientific Co, Pittsburgh, PA). Fluorescent responses were measured in the FLEX Station at 25°C, with an excitation wavelength of 530 nm and an emission wavelength of 565 nm. Various agonists (50 µl) were added after the first 20 seconds and responses were followed for 60–120 seconds.
(§4) Data were graphed using GraphPad Prism software. Non-linear models (sigmoidal dose-response with variable slope or two site competition) were used to fit the concentration response curves. The EC50 and IC50 were calculated from the curves. Kaleidagraph software was used to determine Hill slopes and standard errors of the EC50 and IC50.

[2] = molecular target: T2, human α4β2 AChRs (Homo sapiens, UniProt P17787+P43681); experiment: Acute activation, FLEXStation membrane potential dye, α4β2 cell line; type: cell-based; conditions: for Agonist type (full or partial): α4β2, mixture of stoichiometries
T2 construct: expressed in transfected cells
Method: as §1, §2, §3, §4

[3] = molecular target: T3, α7 AChRs (Homo sapiens, UniProt P36544); experiment: Acute activation, FLEXStation membrane potential dye, α7/RIC-3 cell line; type: cell-based; set-up: expressed in transfected cells; grown in VPA and PBA
Method: as §1, §2, §3, §4

[4] = molecular target: T3, α7 AChRs; experiment: Chronic desensitization (16 h agonist, then ACh response) and calculated smoldering activation, α7 cell line; type: cell-based; set-up: expressed in transfected cells; grown in VPA and PBA; conditions: for Hill (desensitization) / Intercept of Activation and Desensitization Curves: α7: 10 µM ACh
Method: (§5) To measure desensitization, plates were prepared as for agonist assays. Sixteen hours prior to the assay, serial dilutions of agonists, prepared in regular growth medium, were added to the plates. One hour before the assay, the membrane potential-sensitive fluorescent dye with 0.5 µM atropine was added to the wells. […] Each data point represents the average of peak values for individual dose response curves from 4–8 wells.
as §4
(§6) Responses for the three different AChRs are shown in Figures 3, 4, 5, 6, along with the dose response curves for activation (the same as shown in Figure 2). The range of concentrations at which both sustained activation and desensitization can occur (“smoldering activation”) was calculated by multiplying the acute response to agonists at each concentration by the fractional response remaining after desensitization.

[5] = molecular target: T4, (α4β2)2β2 AChRs (Homo sapiens, UniProt P17787+P43681); conditions: (α4β2)2β2, concatenated AChRs in Xenopus oocytes; cited from earlier work
T4 construct: expressed in transfected cells

[6] = molecular target: T2, human α4β2 AChRs; experiment: Chronic desensitization (16 h agonist, then ACh response) and calculated smoldering activation, α4β2 cell line; type: cell-based; conditions: for Extent of desensitization of α4β2 AChRs to ACh: prolonged exposure, up to high concentrations; for Emax at 1 µM: 1 µM varenicline, read-out: Smoldering activation, % of the maximum response; for AChRs desensitized: varenicline 1 µM
Method: as §5, §4, §6

[7] = tested on: (α4β2)2α4 AChRs; conditions: (α4β2)2α4, concatenated AChRs in Xenopus oocytes; cited from earlier work
[8] = molecular target: T1, α3β4 AChRs; experiment: Chronic desensitization (16 h agonist, then ACh response) and calculated smoldering activation, α3β4 cell line; type: cell-based; conditions: for Hill (desensitization) / Intercept of Activation and Desensitization Curves: α3β4: 1.0 mM ACh
Method: as §5, §4, §6

[9] = cited from earlier work
[10] = cited from earlier work; remark: listed apart in the source
[11] = α4β2, higher sensitivity component or monophasic curve
[12] = α4β2, lower sensitivity component
[13] = α4β2: 3 µM ACh ((α4β2)2β2 stoichiometry), centre of smoldering activation
[14] = α4β2: 3 µM ACh, first component
[15] = α4β2: 100 µM ACh (both stoichiometries)
[16] = α4β2: 100 µM ACh, first component

T3 sequence (P36544 23-502): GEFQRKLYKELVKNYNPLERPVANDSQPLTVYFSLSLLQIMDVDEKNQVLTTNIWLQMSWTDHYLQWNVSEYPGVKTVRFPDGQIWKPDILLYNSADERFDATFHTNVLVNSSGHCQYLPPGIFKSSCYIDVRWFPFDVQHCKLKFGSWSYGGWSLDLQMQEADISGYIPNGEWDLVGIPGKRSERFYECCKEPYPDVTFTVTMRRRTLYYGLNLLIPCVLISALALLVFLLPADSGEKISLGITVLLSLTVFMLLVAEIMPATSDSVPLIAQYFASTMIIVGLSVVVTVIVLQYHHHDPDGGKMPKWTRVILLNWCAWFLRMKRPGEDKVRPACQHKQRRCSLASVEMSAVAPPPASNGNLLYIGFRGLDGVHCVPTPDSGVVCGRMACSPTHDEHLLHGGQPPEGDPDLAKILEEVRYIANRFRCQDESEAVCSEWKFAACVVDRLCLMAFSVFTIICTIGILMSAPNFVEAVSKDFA
T1 sequence (P32297 32-505): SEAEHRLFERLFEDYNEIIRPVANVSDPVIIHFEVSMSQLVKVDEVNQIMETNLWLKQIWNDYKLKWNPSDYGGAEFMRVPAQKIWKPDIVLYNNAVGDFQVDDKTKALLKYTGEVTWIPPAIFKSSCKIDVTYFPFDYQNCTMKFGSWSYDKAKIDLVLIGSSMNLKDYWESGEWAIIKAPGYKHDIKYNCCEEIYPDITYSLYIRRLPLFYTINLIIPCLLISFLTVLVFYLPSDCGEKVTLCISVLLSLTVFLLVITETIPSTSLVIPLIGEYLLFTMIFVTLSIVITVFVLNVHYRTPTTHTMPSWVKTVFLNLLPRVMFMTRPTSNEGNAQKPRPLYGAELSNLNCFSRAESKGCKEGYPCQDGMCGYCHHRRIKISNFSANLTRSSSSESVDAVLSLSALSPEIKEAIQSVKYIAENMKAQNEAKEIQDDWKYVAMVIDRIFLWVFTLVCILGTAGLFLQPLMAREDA
T1 sequence (P30926 22-498): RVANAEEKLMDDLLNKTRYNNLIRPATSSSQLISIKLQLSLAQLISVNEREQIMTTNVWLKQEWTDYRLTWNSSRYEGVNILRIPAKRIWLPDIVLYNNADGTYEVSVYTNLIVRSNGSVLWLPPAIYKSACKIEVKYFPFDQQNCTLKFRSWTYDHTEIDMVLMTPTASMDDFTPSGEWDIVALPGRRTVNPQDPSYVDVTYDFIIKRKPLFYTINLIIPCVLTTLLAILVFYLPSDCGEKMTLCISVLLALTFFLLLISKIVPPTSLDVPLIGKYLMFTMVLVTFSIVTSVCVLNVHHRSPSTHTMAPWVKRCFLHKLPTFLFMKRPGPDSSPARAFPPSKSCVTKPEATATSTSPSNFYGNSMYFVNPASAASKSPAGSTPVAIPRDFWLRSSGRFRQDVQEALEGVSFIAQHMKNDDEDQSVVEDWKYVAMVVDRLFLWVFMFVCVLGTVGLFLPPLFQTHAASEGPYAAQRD
T2 sequence (P43681 29-627 limits assumed): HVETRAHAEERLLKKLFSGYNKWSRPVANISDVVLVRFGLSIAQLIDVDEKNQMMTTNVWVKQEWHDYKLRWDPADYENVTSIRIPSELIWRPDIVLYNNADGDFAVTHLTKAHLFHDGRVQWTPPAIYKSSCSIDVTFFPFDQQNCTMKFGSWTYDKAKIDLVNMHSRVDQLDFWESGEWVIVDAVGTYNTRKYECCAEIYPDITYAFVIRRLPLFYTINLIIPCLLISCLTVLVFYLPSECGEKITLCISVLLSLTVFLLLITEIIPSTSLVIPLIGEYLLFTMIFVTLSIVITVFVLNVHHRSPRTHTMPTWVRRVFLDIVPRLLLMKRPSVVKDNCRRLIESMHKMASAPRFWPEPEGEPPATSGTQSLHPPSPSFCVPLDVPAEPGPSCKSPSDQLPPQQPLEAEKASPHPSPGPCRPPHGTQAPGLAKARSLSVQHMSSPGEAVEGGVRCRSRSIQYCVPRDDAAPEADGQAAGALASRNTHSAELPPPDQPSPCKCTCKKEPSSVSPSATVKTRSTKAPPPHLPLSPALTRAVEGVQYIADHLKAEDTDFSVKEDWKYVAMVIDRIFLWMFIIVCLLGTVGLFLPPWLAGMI
T2 sequence (P17787 26-502): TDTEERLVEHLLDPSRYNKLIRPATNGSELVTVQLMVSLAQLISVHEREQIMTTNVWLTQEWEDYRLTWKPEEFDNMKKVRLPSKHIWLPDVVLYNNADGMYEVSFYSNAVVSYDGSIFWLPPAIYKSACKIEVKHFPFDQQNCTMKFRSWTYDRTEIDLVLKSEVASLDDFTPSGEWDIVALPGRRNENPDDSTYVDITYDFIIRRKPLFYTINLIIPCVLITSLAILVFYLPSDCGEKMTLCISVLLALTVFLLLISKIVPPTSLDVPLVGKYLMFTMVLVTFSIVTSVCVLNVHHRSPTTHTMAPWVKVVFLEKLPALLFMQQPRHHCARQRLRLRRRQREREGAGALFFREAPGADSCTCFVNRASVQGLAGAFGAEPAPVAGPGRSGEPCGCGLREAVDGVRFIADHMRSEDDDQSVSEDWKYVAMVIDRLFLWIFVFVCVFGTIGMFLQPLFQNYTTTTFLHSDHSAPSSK
T4 sequence (P43681 29-627 limits assumed): as the sequence (P43681 29-627 limits assumed) above
T4 sequence (P17787 26-502): as the sequence (P17787 26-502) above

SMILES: CC(=O)OCC[N+](C)(C)C [ACh, acetylcholine]
- Hill (activation) ([1]; α3β4): 1.8
- Amplitude of response to saturating concentration ([1]; α3β4, saturating ACh (1.0 mM)): 161,000+/−14,000 relative fluorescence units
- Agonist type (full or partial) [2]: full agonists
- Amplitude of response to saturating concentration ([2]; α4β2, saturating ACh (300 µM)): 167,000+/−18,000 relative fluorescence units
- Hill (activation) [2, 11]: 1.5
- Hill (activation) [2, 12]: 1.3
- Hill (activation) ([3]; α7): 2.4
- Time to maximum response after agonist application ([3]; α7, saturating ACh): ≤ 5 s
- Amplitude of response to saturating concentration ([3]; α7, saturating ACh (10 µM)): 54,000+/−3000 relative fluorescence units and 54,00+/−3000 relative fluorescence units

SMILES: O=c1cccc2n1C[C@@H]1CNC[C@H]2C1 [Cytisine, cytisine]
- IC50 [4]: 4.2 ± 0.74 µM
- Hill (desensitization) [4]: −1.4
- Intercept of Activation and Desensitization Curves [4]: 2.1 µM
- Agonist type [5]: inactive
- IC50 ([6]; Desensitization IC50, α4β2: 3 µM ACh, overnight (16 h) agonist, first (more sensitive) component): 0.001 ± 0.0005 µM
- IC50 ([6]; Desensitization IC50, α4β2: 3 µM ACh, overnight agonist, second component): 0.25 ± 0.1 µM
- IC50 ([6]; Desensitization IC50, α4β2: 100 µM ACh, overnight (16 h) agonist, first (more sensitive) component): 0.003 ± 0.0003 µM
- IC50 ([6]; Desensitization IC50, α4β2: 100 µM ACh, overnight agonist, second component): 20 µM
- Extent of desensitization of α4β2 AChRs to ACh [6]: fully desensitizing
- Concentration from which the desensitization dose response curve shows a plateau ([6]; α4β2, assayed with 100 µM ACh): above 10 nM
- Intercept of Activation and Desensitization Curves [6, 13]: 0.45 µM
- Hill (desensitization) [6, 14]: −1.1
- Hill (desensitization) ([6]; α4β2: 3 µM ACh, second component): −1.1
- Intercept of Activation and Desensitization Curves [6, 15]: 0.74 µM
- Hill (desensitization) [6, 16]: −1.2
- Hill (desensitization) ([6]; α4β2: 100 µM ACh, second component): −0.8
- EC50 [1]: 7.5 ± 1.1 µM
- Agonist type (full or partial) ([1]; α3β4): full agonist
- Efficacy (%) (relative to ACh) ([1]; α3β4): 100%
- Hill (activation) ([1]; α3β4): 1.3
- Agonist type [7]: partial agonist
- EC50 ([2]; Activation EC50, α4β2 cell line, mixed stoichiometries, higher sensitivity component where two-site fit, else monophasic): 5.5 ± 0.8 µM
- Efficacy (%) (relative to ACh) ([2]; α4β2): 34%
- Agonist type (full or partial) [2]: partial agonist
- Hill (activation) [2, 11]: 0.9
- IC50 [8]: 1.3 ± 0.5 µM
- Hill (desensitization) [8]: −0.6
- Intercept of Activation and Desensitization Curves [8]: 4.1 µM
- EC50 [3]: 2 ± 0.06 µM
- Agonist type (full or partial) ([3]; α7): full agonist
- Efficacy (%) (relative to ACh) ([3]; α7): 100%
- Hill (activation) ([3]; α7): 4.3

SMILES: CN1CCC[C@H]1c1cccnc1 [Nicotine, nicotine]
- Hill (desensitization) [4]: −3.2
- Intercept of Activation and Desensitization Curves [4]: 1.7 µM
- Concentrations found in the blood of smokers [9]: 58 to 340 nM
- Emax at 0.1 µM ([6]; read-out: Calculated smoldering activation, % of maximum response, (α4β2)2α4 stoichiometry, 0.1 µM nicotine): 18%
- Emax at 0.1 µM ([6]; read-out: Calculated smoldering activation, % of maximum response, (α4β2)2β2 stoichiometry, 0.1 µM nicotine): 6%
- Emax at […] ([6]; read-out: Calculated smoldering response, % of maximum response, (α4β2)2α4 stoichiometry, nicotine concentration of […]): 54%
- Intercept of Activation and Desensitization Curves [6, 13]: 0.13 µM
- Hill (desensitization) [6, 14]: −1.0
- Intercept of Activation and Desensitization Curves [6, 15]: 1.82 µM
- Hill (desensitization) [6, 16]: −1.2
- Hill (activation) ([1]; α3β4): 1.1
- Agonist type (full or partial) [2]: full agonists
- Hill (activation) [2, 11]: 1.8
- Hill (activation) [2, 12]: 2.5
- Hill (desensitization) [8]: −0.9
- Intercept of Activation and Desensitization Curves [8]: 8.7 µM
- Hill (activation) ([3]; α7): 1.7

- Hill (activation) ([1]; α3β4): 1.4
- Agonist type (full or partial) [2]: partial agonists
- Hill (activation) [2, 11]: 1.1
- Hill (activation) [2, 12]: 1.8
- Hill (activation) ([3]; α7): 3.5
SMILES: c1cnc2cc3c(cc2n1)[C@@H]1CNC[C@H]3C1 [Varenicline, varenicline]
- Hill (desensitization) [4]: −2.6
- Intercept of Activation and Desensitization Curves [4]: 0.4 µM
- Peak levels ([10]; after 14 days on standard dose of 1 mg twice daily): 0.48 µM
- Peak blood levels ([10]; humans, after a 1 mg dose): 0.1 µM
- Levels reached in patients ([10]; patients on therapeutic doses): 400 nM
- Emax at 1 µM ([6]; (α4β2)2α4 AChRs): 23%
- AChRs desensitized ([6]; (α4β2)2α4 AChRs): ~50%
- Emax at 1 µM ([6]; (α4β2)2β2 AChRs): 4.3%
- AChRs desensitized ([6]; (α4β2)2β2 AChRs): > 90%
- Extent of desensitization of α4β2 AChRs to ACh [6]: fully desensitizing
- Intercept of Activation and Desensitization Curves [6, 13]: 0.16 µM
- Hill (desensitization) [6, 14]: −0.6
- Intercept of Activation and Desensitization Curves [6, 15]: 0.93 µM
- Hill (desensitization) [6, 16]: −1.0
- Hill (desensitization) [8]: −1.1
- Intercept of Activation and Desensitization Curves [8]: 2.1 µM
